Data: ChEMBL document CHEMBL3627701, “(2-Arylethenyl)-1,3,5-triazin-2-amines as a novel histamine H4 receptor ligands” (Eur J Med Chem, 2015)
Each block holds one molecule with its values, some of them ahead of it. Active and inactive are the calls of the source. No cut-off for these calls is given here.

Assays:
[1] = target: T1, Histamine H4 receptor (Homo sapiens, UniProt Q9H3N8); assay: Displacement of [3H]histamine from human H4 receptor expressed in Sf9 cell membranes co-expressing Galphai2 and Gbeta1gamma2 after 60 mins by liquid scintillation counting assay; assay type: cell-based
[2] = target: T1, Histamine H4 receptor; assay: Antagonist activity at human H4R expressed in CHO cells assessed as inhibition of forskolin-induced cAMP accumulation after 30 mins by TR-FRET immunoassay; assay type: functional, cell-based
[3] = target: Histamine H3 receptor (Homo sapiens) (UniProt Q9Y5N1); assay: Displacement of [3H]-N-alpha-methylhistamine from human H3 receptor expressed in HEK293 cells at >=30 uM after 60 mins by liquid scintillation counter assay; assay type: cell-based
[4] = system: Mus musculus; assay: Antiinflammatory activity in albino Swiss mouse assessed as inhibition of carrageenan-induced paw edema at 50 mg/kg, po administered prior to carrageenan challenge measured after 1 to 3 hrs by plethysmometry relative to control; assay type: functional
[5] = system: Mus musculus; assay: Antiinflammatory activity in albino Swiss mouse assessed as inhibition of carrageenan-induced paw edema at 25 mg/kg, po administered prior to carrageenan challenge measured after 1 to 3 hrs by plethysmometry relative to control; assay type: functional
[6] = system: Liver microsome; assay: Retention time in human liver microsomes at 50 uM after 48 hrs by LC-MS analysis; assay type: ADME
[7] = system: Liver microsome; assay: Drug level in human liver microsomes treated with 50 uM 4-[(E)-2-(3-chlorophenyl)ethenyl]-6-(4-methylpiperazin-1-yl)-1,3,5-triazin-2-amine assessed as compound formation after 48 hrs by LC-MS analysis; assay type: ADME
[8] = target: T2, Histamine H4 receptor (Mus musculus, UniProt Q91ZY2); assay: Displacement of [3H]histamine from mouse H4 receptor expressed in HEK293 cell membranes co-expressing Galphai2 and Gbeta1gamma2 after 1 hr by liquid scintillation counting assay
T2 sequence (Q91ZY2 whole entry): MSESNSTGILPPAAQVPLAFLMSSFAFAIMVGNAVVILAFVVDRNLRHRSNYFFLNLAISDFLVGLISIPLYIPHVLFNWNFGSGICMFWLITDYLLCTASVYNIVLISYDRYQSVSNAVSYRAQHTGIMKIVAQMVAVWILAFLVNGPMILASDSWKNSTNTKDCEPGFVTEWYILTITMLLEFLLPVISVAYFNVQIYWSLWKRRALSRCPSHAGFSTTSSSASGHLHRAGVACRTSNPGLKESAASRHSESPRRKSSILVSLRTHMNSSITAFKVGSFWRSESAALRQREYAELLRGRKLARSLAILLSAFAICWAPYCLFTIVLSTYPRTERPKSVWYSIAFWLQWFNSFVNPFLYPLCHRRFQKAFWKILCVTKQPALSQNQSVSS

[9] = system: HEK293; assay: Antiproliferative activity against HEK293 cells assessed as inhibition of cell viability at 0.01 to 250 uM after 48 hrs; assay type: cell-based; conditions: human, hek293, 48 h
[10] = Antiproliferative activity against human IMR32 cells assessed as inhibition of cell viability at 0.01 to 250 uM after 48 hrs; assay type: cell-based; conditions: imr-32, 48 h
[11] = Ratio of IC50 for doxorubicin to antiproliferative activity for test compound against human IMR32 cells; assay type: cell-based, IMR-32; conditions: read-out: Ratio IC50
[12] = system: Salmonella typhimurium; assay: Genotoxicity in Salmonella typhimurium TA98 at 1 to 100 uM after 48 hrs by MPF assay; assay type: toxicity, organism-based; conditions: salmonella enterica subsp. enterica serovar typhimurium
[13] = target: CYP3A4 (Homo sapiens, UniProt P08684); assay: Inhibition of human recombinant CYP3A4 assessed as conversion of luciferin-PPXE to D-luciferin at 25 uM by luminescence Glo assay relative to control; assay type: ADME; conditions: recombinant CYP3A4, probe luciferin-PPXE
[14] = system: Mus musculus; assay: Antiinflammatory activity in albino Swiss mouse assessed as inhibition of carrageenan-induced paw edema at 50 mg/kg, po administered prior to carrageenan challenge measured after 1 hr by plethysmometry relative to control; assay type: functional
[15] = system: Mus musculus; assay: Antiinflammatory activity in albino Swiss mouse assessed as inhibition of carrageenan-induced paw edema at 50 mg/kg, po administered prior to carrageenan challenge measured after 2 hrs by plethysmometry relative to control; assay type: functional
[16] = system: Mus musculus; assay: Antiinflammatory activity in albino Swiss mouse assessed as inhibition of carrageenan-induced paw edema at 50 mg/kg, po administered prior to carrageenan challenge measured after 3 hrs by plethysmometry relative to control; assay type: functional
[17] = system: Mus musculus; assay: Antiinflammatory activity in albino Swiss mouse assessed as inhibition of carrageenan-induced paw edema at 10 mg/kg, po administered prior to carrageenan challenge measured after 1 to 3 hrs by plethysmometry relative to control; assay type: functional
[18] = system: Mus musculus; assay: Antiinflammatory activity in albino Swiss mouse assessed as inhibition of carrageenan-induced paw edema at 25 mg/kg, po administered prior to carrageenan challenge measured after 1 hr by plethysmometry relative to control; assay type: functional
[19] = system: Mus musculus; assay: Antiinflammatory activity in albino Swiss mouse assessed as inhibition of carrageenan-induced paw edema at 25 mg/kg, po administered prior to carrageenan challenge measured after 2 hrs by plethysmometry relative to control; assay type: functional
[20] = system: Mus musculus; assay: Antiinflammatory activity in albino Swiss mouse assessed as inhibition of carrageenan-induced paw edema at 25 mg/kg, po administered prior to carrageenan challenge measured after 3 hrs by plethysmometry relative to control; assay type: functional
[21] = system: Liver microsome; assay: Drug metabolism in human liver microsomes assessed as metabolite M1 formation at 50 uM after 48 hrs by LC-MS analysis; assay type: ADME
[22] = system: Liver microsome; assay: Drug metabolism in human liver microsomes assessed as metabolite M2 formation at 50 uM after 48 hrs by LC-MS analysis; assay type: ADME
[23] = Antiproliferative activity against human IMR32 cells assessed as inhibition of cell viability after 48 hrs; assay type: cell-based; conditions: IMR-32, 48 h
[24] = system: Mus musculus; assay: Antiinflammatory activity in albino Swiss mouse assessed as inhibition of carrageenan-induced paw edema at 10 mg/kg, po administered prior to carrageenan challenge measured after 1 hr by plethysmometry relative to control; assay type: functional
[25] = system: Mus musculus; assay: Antiinflammatory activity in albino Swiss mouse assessed as inhibition of carrageenan-induced paw edema at 10 mg/kg, po administered prior to carrageenan challenge measured after 2 hrs by plethysmometry relative to control; assay type: functional
[26] = system: Mus musculus; assay: Antiinflammatory activity in albino Swiss mouse assessed as inhibition of carrageenan-induced paw edema at 10 mg/kg, po administered prior to carrageenan challenge measured after 3 hrs by plethysmometry relative to control; assay type: functional

Chain of Histamine H3 receptor (Homo sapiens) (Q9Y5N1 whole entry): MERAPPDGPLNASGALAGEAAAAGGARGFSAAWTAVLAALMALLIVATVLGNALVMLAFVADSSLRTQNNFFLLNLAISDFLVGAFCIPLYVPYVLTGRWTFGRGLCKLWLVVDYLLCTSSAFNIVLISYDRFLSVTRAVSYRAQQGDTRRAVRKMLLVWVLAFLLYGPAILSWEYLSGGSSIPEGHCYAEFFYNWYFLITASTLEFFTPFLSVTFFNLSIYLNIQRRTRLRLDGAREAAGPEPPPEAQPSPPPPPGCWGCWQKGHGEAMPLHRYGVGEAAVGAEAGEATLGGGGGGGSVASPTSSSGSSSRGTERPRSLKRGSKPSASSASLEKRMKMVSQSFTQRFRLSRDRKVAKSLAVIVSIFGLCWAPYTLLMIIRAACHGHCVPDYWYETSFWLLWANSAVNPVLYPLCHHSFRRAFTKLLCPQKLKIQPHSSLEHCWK
Chain of CYP3A4 (P08684 whole entry): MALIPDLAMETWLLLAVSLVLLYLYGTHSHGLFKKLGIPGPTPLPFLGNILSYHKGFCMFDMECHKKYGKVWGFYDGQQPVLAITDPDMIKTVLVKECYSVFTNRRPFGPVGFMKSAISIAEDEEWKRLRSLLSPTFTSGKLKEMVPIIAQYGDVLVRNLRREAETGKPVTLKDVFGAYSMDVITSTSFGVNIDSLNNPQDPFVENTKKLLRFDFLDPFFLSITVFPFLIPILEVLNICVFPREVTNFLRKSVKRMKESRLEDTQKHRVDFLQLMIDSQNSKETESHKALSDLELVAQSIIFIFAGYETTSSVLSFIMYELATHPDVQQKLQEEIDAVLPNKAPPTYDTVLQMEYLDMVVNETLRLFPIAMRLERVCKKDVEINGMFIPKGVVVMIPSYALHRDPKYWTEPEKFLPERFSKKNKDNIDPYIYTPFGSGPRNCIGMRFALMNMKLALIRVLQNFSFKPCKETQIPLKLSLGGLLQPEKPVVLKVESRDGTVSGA

Compound: CN1CCN(c2nc(N)nc(/C=C/c3cccc([N+](=O)[O-])c3)n2)CC1
- Ki [1]: 2.57 µM

Compound: CN1CCN(c2nc(N)nc(/C=C/c3cccc(Br)c3)n2)CC1
- Ki [1]: 1.14 µM

Compound: CN1CCN(c2nc(N)nc(/C=C/c3cccc(C(F)(F)F)c3)n2)CC1
- Ki [1]: 2.45 µM

Compound: CN1CCN(c2nc(N)nc(/C=C/c3ccc4ccccc4c3)n2)CC1
- Ki [1]: 3.79 µM

Compound: Cc1ccc(/C=C/c2nc(N)nc(N3CCN(C)CC3)n2)cc1
- Ki [1]: 37.4 µM

Compound: CN1CCN(c2nc(N)nc(/C=C/c3cccc(F)c3)n2)CC1
- Ki [1]: 3.52 µM

Compound: CN1CCN(c2nc(N)nc(/C=C/c3cccc(C#N)c3)n2)CC1
- Ki [1]: 2.64 µM

Compound: Nc1nc(/C=C/c2cccc(Cl)c2)nc(N2CCNCC2)n1
- Retention_time [6]: 3.55 min
- Drug metabolism [7]: metabolite_detected

Compound: COc1cccc2c1C(=O)c1c(O)c3c(c(O)c1C2=O)C[C@@](O)(C(=O)CO)C[C@@H]3O[C@H]1C[C@H](N)[C@H](O)[C@H](C)O1 [DOXORUBICIN]
- IC50 [23]: 0.0051 µM

Compound: CC(C(=O)O)c1cccc(C(=O)c2ccccc2)c1 (stereo unspecified) [KETOPROFEN]
- inhibition in vivo at 50 mg/kg [14]: 67%
- inhibition in vivo at 50 mg/kg [15]: 71%
- inhibition in vivo at 50 mg/kg [16]: 77%
- inhibition in vivo at 25 mg/kg [18]: 20%
- inhibition in vivo at 25 mg/kg [19]: 54%
- inhibition in vivo at 25 mg/kg [20]: 67%
- inhibition in vivo at 10 mg/kg [24]: 27%
- inhibition in vivo at 10 mg/kg [25]: 55%
- inhibition in vivo at 10 mg/kg [26]: 63%

Continued, in another order:

- Ki [1]: 2.52 µM
Compound: CN1CCN(c2nc(N)nc(/C=C/c3c[nH]c4ccccc34)n2)CC1

- Ki [1]: 4.86 µM
Compound: CN1CCN(c2nc(N)nc(/C=C/c3ccccc3Cl)n2)CC1

- Ki [1]: 9.04 µM
Compound: CN1CCN(c2nc(N)nc(/C=C/c3ccc(Cl)cc3Cl)n2)CC1

- Ki [1]: 2.23 µM
Compound: Cc1ccccc1/C=C/c1nc(N)nc(N2CCN(C)CC2)n1

- Ki [1]: 5.21 µM
Compound: CN1CCN(c2nc(N)nc(/C=C/c3ccccc3)n2)CC1

- Ki [1]: 4.21 µM
Compound: CN1CCN(c2nc(N)nc(/C=C/c3ccc(Cl)cc3)n2)CC1

- Ki [1]: 0.703 µM
- IC50 [2]: 0.606 µM
- inhibition [3]: Active
Compound: Cc1cccc(/C=C/c2nc(N)nc(N3CCN(C)CC3)n2)c1
- inhibition in vivo at 50 mg/kg [4]: 88%
- inhibition in vivo at 25 mg/kg [5]: 53%

- Ki [1]: 30 µM
Compound: CN1CCN(c2nc(N)nc(/C=C/c3cccc4ccccc34)n2)CC1

- Ki [1]: 0.253 µM
- Ki [8]: 0.854 µM
- IC50 [2]: 0.439 µM
- inhibition [3]: Active
- Retention_time [6]: 3.63 min
- inhibition at 25 µM [13]: 58%
- Drug metabolism [21]: metabolite_detected
- Drug metabolism [22]: metabolite_detected
Compound: CN1CCN(c2nc(N)nc(/C=C/c3cccc(Cl)c3)n2)CC1
- Activity [9]: Non-toxic
- Activity [10]: Non-toxic
- selectivity ratio [11]: > 1000
- Activity [12]: Non-toxic
- inhibition in vivo at 50 mg/kg [14]: 69%
- inhibition in vivo at 50 mg/kg [15]: 62%
- inhibition in vivo at 50 mg/kg [16]: 67%
- inhibition in vivo at 10 mg/kg [17]: 50%
- inhibition in vivo at 25 mg/kg [18]: 59%
- inhibition in vivo at 25 mg/kg [19]: 58%
- inhibition in vivo at 25 mg/kg [20]: 65%

- Ki [1]: 1.78 µM
Compound: CN1CCN(c2nc(N)nc(/C=C/c3ccc(Cl)c(Cl)c3)n2)CC1
